Results taken from PMC3578762, “Mutational Analysis of the High-Affinity Zinc Binding Site Validates a Refined Human Dopamine Transporter Homology Model” (PLoS Computational Biology, 2013).
“And” between values parts separate entries of the source, which are not always exact repeats. Equal entries are not always repeated. Where two headings read alike, the source gives them in different places.

What was measured:
DAT (H193K) = biological target: T1, DAT (H193K) (Homo sapiens, UniProt Q01959, H193K); assay: Zinc inhibition of [3H]MPP+ uptake in HEK293 cells transiently expressing DAT-H193K; format: cell-based; settings: [3H]MPP+ uptake inhibition, homogeneous (mono-phasic) inhibition curve, mean ± S.E., read-out: Low-affinity site: IC50 (Zn^2+)
T1 construct: expressed in transfected cells; host or cells: HEK293 (transient, calcium phosphate)
Method: (§1) Wild-type human DAT was generously donated by Marc G. Caron; DAT H193K was a generous gift from Ulrik Gether. Wild-type and mutant DAT were YFP tagged at their N-terminus as described in Egana et al.. Mutagenesis was performed using the Quickchange Lightning Kit by Agilent Technologies. Primers were designed using the “quickchange primer design tool” by Agilent. Primers used were: D206K: (5′-3′): […]; D206C: (5′-3′): […].
(§2) HEK293 cells were cultured in Dulbecco's modified Eagle's medium (DMEM) with high glucose (4.5 g/liter) and L-glutamine (584 mg/liter), supplemented with 10% fetal calf serum (FCS), 100 units/ml penicillin and 100 µg/ml streptomycin. The cells were maintained at 37°C in a humidified atmosphere of 5% CO2/95% air on standard plastic culture ware. […]
(§3) Cells were seeded at 0.5×10^5 cells/ml into poly-D-lysine coated 48 well plates twenty-four hours after calcium phosphate transfection with either wild-type or mutant DAT. […] Non-specific uptake was determined in the presence of 10 µM mazindol.
(§4) Uptake data are given by mean values ± S.E, obtained from n = 6–8 experiments. Total uptake data were corrected for non-specific uptake and expressed as a percentage of 0 mM ZnCl2 for each experiment. IC50 values were calculated for each mutant by performing non-linear regression analysis using PRISM version 4.0 (GraphPad Software, Inc., San Diego, CA).

DAT (D206A) = biological target: T2, DAT (D206A) (Homo sapiens, UniProt Q01959, D206A); assay: Zinc inhibition of [3H]MPP+ uptake in HEK293 cells transiently expressing DAT-D206A; format: cell-based; settings: [3H]MPP+ uptake inhibition, mean ± S.E.
T2 construct: expressed in transfected cells; host or cells: HEK293 (transient, calcium phosphate)
Method: as §1, §2, §3, §4

DAT = tested on: DAT; set-up: method as in PMID 9687495, PMID 8423763; settings: synaptosomes and heterologous expression systems; cited from earlier work
DAT (wild-type) = biological target: T3, DAT (wild-type) (Homo sapiens, UniProt Q01959); assay: Zinc inhibition of [3H]MPP+ uptake in HEK293 cells transiently expressing wild-type DAT; format: cell-based; settings: for IC50: [3H]MPP+ uptake inhibition, HEK293 cells, bi-phasic fit, mean ± S.E.
T3 construct: expressed in transfected cells; host or cells: HEK293 (transient, calcium phosphate)
Method: (§5) HEK293 cells were cultured in Dulbecco's modified Eagle's medium (DMEM) with high glucose (4.5 g/liter) and L-glutamine (584 mg/liter), supplemented with 10% fetal calf serum (FCS), 100 units/ml penicillin and 100 µg/ml streptomycin. The cells were maintained at 37°C in a humidified atmosphere of 5% CO2/95% air on standard plastic culture ware. The cells were transiently transfected with 2–10 µg of plasmid DNA as required, using the calcium phosphate precipitation method.
(§6) Cells were seeded at 0.5×10^5 cells/ml into poly-D-lysine coated 48 well plates twenty-four hours after calcium phosphate transfection with either wild-type or mutant DAT. Uptakes were performed as described previously. In brief, the cell medium was aspirated and the cells were washed once with Krebs-HEPES buffer at room temperature. The washed cells were pre-incubated with Krebs-HEPES buffer in the presence of 0–10 mM ZnCl2 for 5 min at room temperature. In the first step of the assay, this buffer was replaced with Krebs-Hepes buffer containing the appropriate ZnCl2 concentration and 0.02 µM [^3H]MPP^+. After three minutes substrate uptake was stopped by exchange of the substrate containing buffer with ice-cold Krebs-Hepes buffer. The cells were lysed in 1% SDS and transferred to scintillation vials. Scintillation cocktail was added and the vials were assayed for [^3H] content by liquid scintillation counting. Non-specific uptake was determined in the presence of 10 µM mazindol.
as §4

DAT (D206C) = biological target: T4, DAT (D206C) (Homo sapiens, UniProt Q01959, D206C); assay: Zinc inhibition of [3H]MPP+ uptake in HEK293 cells transiently expressing DAT-D206C; format: cell-based
T4 construct: expressed in transfected cells; host or cells: HEK293 (transient, calcium phosphate)
Method: as §1, §5
as §6, with “The cells were lysed in 1% SDS and transferred to scintillation vials. Scintillation cocktail was added and the vials were assayed for [^3H] content by liquid scintillation counting.” left out
as §4

DAT (D206K) = biological target: T5, DAT (D206K) (Homo sapiens, UniProt Q01959, D206K); assay: Zinc inhibition of [3H]MPP+ uptake in HEK293 cells transiently expressing DAT-D206K; format: cell-based; settings: for IC50: [3H]MPP+ uptake inhibition, HEK293 cells, DAT D206K, mean ± S.E.
T5 construct: expressed in transfected cells; host or cells: HEK293 (transient, calcium phosphate)
Method: as §1, §5
as §6, with “The cells were lysed in 1% SDS and transferred to scintillation vials. Scintillation cocktail was added and the vials were assayed for [^3H] content by liquid scintillation counting.” left out
as §4

DAT (D206E) = biological target: T6, DAT (D206E) (Homo sapiens, UniProt Q01959, D206E); assay: Zinc inhibition of [3H]MPP+ uptake in HEK293 cells transiently expressing DAT-D206E; format: cell-based; settings: [3H]MPP+ uptake inhibition, mean ± S.E.
T6 construct: expressed in transfected cells; host or cells: HEK293 (transient, calcium phosphate)
Method: as §1, §2, §3, §4

[1] = read-out: High-affinity site: IC50 (Zn^2+)
[2] = read-out: Low-affinity site: IC50 (Zn^2+)

T4 sequence (Q01959 whole entry D206C): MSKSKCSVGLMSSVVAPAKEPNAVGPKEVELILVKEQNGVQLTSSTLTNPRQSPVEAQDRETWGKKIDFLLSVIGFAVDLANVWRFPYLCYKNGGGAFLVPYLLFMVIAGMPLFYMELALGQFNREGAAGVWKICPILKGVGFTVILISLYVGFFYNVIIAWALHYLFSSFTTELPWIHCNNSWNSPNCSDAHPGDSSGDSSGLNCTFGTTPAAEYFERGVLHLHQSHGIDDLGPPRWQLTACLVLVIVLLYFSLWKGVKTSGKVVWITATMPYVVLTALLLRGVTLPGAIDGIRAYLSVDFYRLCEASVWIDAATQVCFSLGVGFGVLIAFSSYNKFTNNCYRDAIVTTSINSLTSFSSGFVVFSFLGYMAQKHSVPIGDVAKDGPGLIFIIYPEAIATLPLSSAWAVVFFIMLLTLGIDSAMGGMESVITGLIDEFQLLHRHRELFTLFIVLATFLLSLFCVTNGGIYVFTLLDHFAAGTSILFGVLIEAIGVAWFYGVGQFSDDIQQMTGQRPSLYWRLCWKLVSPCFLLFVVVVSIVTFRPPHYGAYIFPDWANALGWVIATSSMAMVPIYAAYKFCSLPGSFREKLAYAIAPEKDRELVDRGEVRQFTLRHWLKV
T3 sequence (Q01959 whole entry): as the sequence (Q01959 whole entry D206C) above, with C206D counted along it
T5 sequence (Q01959 whole entry D206K): as the sequence (Q01959 whole entry D206C) above, with C206K counted along it
T2 sequence (Q01959 whole entry D206A): as the sequence (Q01959 whole entry D206C) above, with C206A counted along it
T6 sequence (Q01959 whole entry D206E): as the sequence (Q01959 whole entry D206C) above, with C206E counted along it
T1 sequence (Q01959 whole entry H193K): as the sequence (Q01959 whole entry D206C) above, with H193K, C206D counted along it

`[Zn+2]` [zinc] gave an IC50 (DAT (H193K)) of 102 ± 8 µM, an IC50 (DAT (D206A); [1]) of 0.79 ± 0.1 µM and an IC50 (DAT (D206A); [2]) of 219 ± 14 µM. For the same compound, the “IC50 of inhibition of dopamine re-uptake” value (DAT) was “low µM range”, the IC50 (DAT (wild-type); [1]) was 1 µM and 0.91 µM and the IC50 (DAT (wild-type); [2]) was 798 ± 84 µM. The “Reduction of the transport rate of DAT upon zinc binding” value (DAT (wild-type); zinc bound to high-affinity site) was about 50%, the “Inhibition of transport upon saturation of the high affinity site” value (DAT (D206C); DAT-D206C, [3H]MPP+ uptake, HEK293 cells) was “almost complete inhibition of transport” and the “Occupancy of the high affinity site predicted” value (DAT (D206C); DAT-D206C, at 250 µM zinc) was 99%. For the same compound, the IC50 (DAT (D206C); [3H]MPP+ uptake inhibition, HEK293 cells, DAT D206C, mean ± S.E., read-out: High-affinity site: IC50 (Zn^2+)) was 6.81 ± 1.4 µM, the “Reduction of inhibitory potency of zinc on the high-affinity component versus wild-type” value (DAT (D206K); DAT-D206K versus wild-type DAT) was “approximately three fold” and the IC50 (DAT (D206K); [1]) was 2.54 ± 0.8 µM. For the same compound, the IC50 (DAT (D206K); [2]) was 682 ± 100 µM, the IC50 (DAT (D206E); [1]) was 1.22 ± 0.3 µM and the IC50 (DAT (D206E); [2]) was 857 ± 76 µM.
